In US20020115661A1, “Method for treating chronic obstructive pulmonary disease” (priority 2000, published 2002):

Assays:
dog ETA receptors = molecular target: T1, dog ETA receptors (Canis lupus familiaris, UniProt Q5KSU9); assay: [125I]ET-1 binding, membranes from dog cardiac ventricle
T1 construct: from tissue
T1 sequence (Q5KSU9 21-426): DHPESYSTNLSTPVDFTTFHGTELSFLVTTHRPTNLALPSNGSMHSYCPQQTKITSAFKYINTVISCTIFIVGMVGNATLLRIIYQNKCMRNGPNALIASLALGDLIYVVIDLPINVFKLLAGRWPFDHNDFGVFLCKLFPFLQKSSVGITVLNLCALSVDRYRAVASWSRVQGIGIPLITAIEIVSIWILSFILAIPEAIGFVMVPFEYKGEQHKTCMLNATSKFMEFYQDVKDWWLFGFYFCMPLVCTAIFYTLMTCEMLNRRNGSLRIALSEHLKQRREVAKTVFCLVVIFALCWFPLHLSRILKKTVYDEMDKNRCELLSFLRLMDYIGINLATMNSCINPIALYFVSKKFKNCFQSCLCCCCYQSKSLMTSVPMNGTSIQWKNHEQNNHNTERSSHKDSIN
Text: Relative binding activities are given below in TABLE 3.

[1] = molecular target: T2, human ETA receptor signaling (Homo sapiens, UniProt P25101); assay: ET-1 induced Ca2+ transient (Calcium Green-1) in human pulmonary artery smooth muscle cells; assay type: cell-based; settings: hPASMC, ET-1 100 nM; read-out: IC50, inhibition of ET-1 Ca2+ response
T2 construct: endogenous in cells; host or cells: human pulmonary artery smooth muscle cells (hPASMC)
T2 sequence (P25101 21-427): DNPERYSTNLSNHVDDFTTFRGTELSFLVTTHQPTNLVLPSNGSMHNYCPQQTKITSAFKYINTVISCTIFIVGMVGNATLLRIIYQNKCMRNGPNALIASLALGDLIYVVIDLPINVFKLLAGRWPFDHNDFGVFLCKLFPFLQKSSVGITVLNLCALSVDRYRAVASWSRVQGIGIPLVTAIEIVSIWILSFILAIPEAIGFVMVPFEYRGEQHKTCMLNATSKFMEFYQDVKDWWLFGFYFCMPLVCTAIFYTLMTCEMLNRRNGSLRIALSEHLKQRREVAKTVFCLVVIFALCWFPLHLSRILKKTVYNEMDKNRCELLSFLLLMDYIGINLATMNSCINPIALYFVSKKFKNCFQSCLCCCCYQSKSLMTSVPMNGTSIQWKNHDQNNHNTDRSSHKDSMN

[2] = tested on: rat, dog, monkey, and human hepatocyte preparations; assay: Incubations with hepatocyte preparations; assay type: in vitro ADME; settings: monkey, and human hepatocytes
[3] = Plasma CI-1034 concentrations in anesthetized dogs; assay type: in vivo; settings: intravenous, dog; for concentration at 15 min: 15 minutes postdose; for concentration at 30 min: 30 minutes postdose; for concentration at 60 min: 60 minutes postdose
[4] = Dissociation constant by potentiometric titration in water; assay type: physicochemical; settings: carboxylic acid group, read-out: apparent pKa

CCc1cc(C2=C(C(=O)[O-])N(c3ccccc3C(F)(F)F)S(=O)(=O)c3ccccc32)cc2c1OCO2.[K+] [CI-1034, 4-(7-Ethyl-1,3-benzodioxol-5-yl)-2-[2-(trifluoromethyl)phenyl]-2H-1 ,2-benzothiazine-3-carboxylic acid 1,1-dioxide monopotassium salt]
IC50 (dog ETA receptors): 2 nM
IC50 [1]: 0.22 nM
metabolic profiles across species [2]: qualitatively similar metabolic profiles
concentration at 15 min ([3]; 30 mg/kg): 221 µg/mL
concentration at 30 min ([3]; 30 mg/kg): 209 µg/mL
concentration at 60 min ([3]; 30 mg/kg): 157 µg/mL
concentration at 5 min ([3]; 40 mg/kg, 5 minutes postdose, N = 1): 395 µg/mL
concentration at 15 min ([3]; 40 mg/kg, N = 1): 327 µg/mL
concentration at 30 min ([3]; 40 mg/kg, N = 1): 267 µg/mL
concentration at 60 min ([3]; 40 mg/kg, N = 1): 230 µg/mL
concentration at 15 min ([3]; 60 mg/kg): 427 µg/mL
concentration at 30 min ([3]; 60 mg/kg): 367 µg/mL
concentration at 60 min ([3]; 60 mg/kg): 337 µg/mL
pKa [4]: 3.9
